According to ChEMBL document CHEMBL5154908, “Design, Synthesis, and Biological Characterization of Inhaled p38α/β MAPK Inhibitors for the Treatment of Lung Inflammatory Diseases” (J Med Chem, 2022):
Converted amounts (≈) assume the structure as drawn.

Experiments:
Rattus norvegicus [1] = test: Antiinflammatory activity against LPS-induced Sprague-Dawley rat inflammatory model assessed as inhibition of neutrophil cells release in BALF at 0.1 mg/kg, IT preincubated for 2 hrs followed by LPS-stimulation and measured after 4 hrs relative to control; type: functional; set-up: scale not given: the % may be the effect or the level left; settings: time 6 hrs
Rattus norvegicus [2] = test: Antiinflammatory activity against LPS-induced Sprague-Dawley rat inflammatory model assessed as inhibition of neutrophil cells release in BALF at 0.3 mg/kg, IT preincubated for 2 hrs followed by LPS-stimulation and measured after 4 hrs relative to control; type: functional; set-up: scale not given: the % may be the effect or the level left; settings: time 6 hrs
[3] = target: T1, Mitogen-activated protein kinase 14 (Homo sapiens, UniProt Q16539); test: Inhibition of human recombinant full length GST-tagged p38alpha expressed in Escherichia coli preincubated for 2 hrs followed by ATP addition and measured after 1 hr by Alpha screen assay
[4] = Efflux ratio of permeability in human Caco-2 cells at 10 uM measured after 60 mins by LC-MS/MS analysis; type: ADME, cell-based
[5] = Solubility of the compound at >=1 mg/ml measured after 30 mins by HPLC analysis; type: physicochemical
[6] = Protein binding in rat plasma at 10 uM incubated for 4 hrs by LC/MS/MS analysis; type: ADME, cell-free; settings: read-out: PPB (converted)
[7] = Cmax in Sprague-Dawley rat plasma at 0.3 mg/kg, IT measured after 0.8 hrs by LC/MS/MS analysis; type: ADME, organism-based; set-up: time 0.8 hrs, dose 0.3 mg/kg, route it
[8] = target: T2, Mitogen-activated protein kinase 12 (Homo sapiens, UniProt P53778); test: Inhibition of recombinant human full length His-tagged p38gamma expressed in baculovirus expression system preincubated for 2 hrs followed by ATP addition and measured after 1 hr by Alpha screen assay
T2 sequence (P53778 whole entry): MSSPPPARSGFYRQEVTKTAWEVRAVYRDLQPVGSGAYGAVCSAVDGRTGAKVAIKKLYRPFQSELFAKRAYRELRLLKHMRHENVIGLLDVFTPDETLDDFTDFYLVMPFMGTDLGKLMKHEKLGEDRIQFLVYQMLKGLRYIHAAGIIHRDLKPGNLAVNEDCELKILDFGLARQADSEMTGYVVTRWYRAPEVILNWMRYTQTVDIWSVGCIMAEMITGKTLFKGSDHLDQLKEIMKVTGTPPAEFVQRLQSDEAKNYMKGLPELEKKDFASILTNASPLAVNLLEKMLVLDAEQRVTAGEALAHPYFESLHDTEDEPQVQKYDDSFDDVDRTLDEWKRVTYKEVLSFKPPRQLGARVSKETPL

[9] = Inhibition of LPS-stimulated TNFalpha release in human PBMC cells preincubated for 1 hr followed by LPS stimulation and measured after 18 hrs; type: functional, cell-based
[10] = Protein binding in rat lung homogenate at 10 uM incubated for 4 hrs by LC/MS/MS analysis; type: ADME, tissue-based; settings: read-out: PB (converted)
[11] = target: T1, Mitogen-activated protein kinase 14; test: Displacement of SKF-86002 from human inactivated p38alpha assessed as dissociation half life incubated for 2 hrs by fluorescence based analysis
[12] = Drug concentration in Sprague-Dawley rat lung homogenate at 0.3 mg/kg, IT measured after 24 hrs by LC/MS/MS analysis; type: ADME, organism-based; settings: read-out: Ct
Rattus norvegicus [13] = test: Antiinflammatory activity against LPS-induced Sprague-Dawley rat inflammatory model assessed as inhibition of neutrophil cells release in BALF at 0.3 mg/kg, IT incubated for 9 hrs followed by LPS-stimulation relative to control; type: functional
[14] = Selectivity index, ratio of drug concentration in Sprague-Dawley rat lung homogenate to IC50 for human p38alpha; type: tissue-based; settings: tissue homogenate
[15] = target: T3, Mitogen-activated protein kinase 13 (Homo sapiens, UniProt O15264); test: Inhibition of recombinant human full length His-tagged p38delta expressed in baculovirus expression system preincubated for 2 hrs followed by ATP addition and measured after 1 hr by Alpha screen assay
T3 sequence (O15264 whole entry): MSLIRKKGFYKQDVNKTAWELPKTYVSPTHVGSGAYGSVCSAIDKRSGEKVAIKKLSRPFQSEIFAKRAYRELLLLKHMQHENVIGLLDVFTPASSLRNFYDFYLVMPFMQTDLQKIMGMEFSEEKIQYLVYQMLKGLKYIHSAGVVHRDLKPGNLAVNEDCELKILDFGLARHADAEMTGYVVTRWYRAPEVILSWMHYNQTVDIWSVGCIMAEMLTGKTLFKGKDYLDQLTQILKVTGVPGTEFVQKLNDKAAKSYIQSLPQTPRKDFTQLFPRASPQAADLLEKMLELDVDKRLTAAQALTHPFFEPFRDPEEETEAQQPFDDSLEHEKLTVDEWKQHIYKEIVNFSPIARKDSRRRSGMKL

[16] = target: Mitogen-activated protein kinase 11 (Homo sapiens, UniProt Q15759); test: Inhibition of recombinant human full length His-tagged p38beta expressed in baculovirus expression system preincubated for 2 hrs followed by ATP addition and measured after 1 hr by Alpha screen assay
[17] = Cmax in Sprague-Dawley rat lung homogenate at 0.3 mg/kg, IT measured after 0.8 hrs by LC/MS/MS analysis; type: ADME, organism-based; set-up: time 0.8 hrs, dose 0.3 mg/kg, route it
[18] = Permeability across apical to basolateral side in human Caco-2 cells at 10 uM measured after 60 mins by LC/MS/MS analysis; type: ADME, cell-based; settings: read-out: permeability
[19] = Drug uptake in Sprague-Dawley rat lung homogenate at 0.03 mg/kg, IT measured after 24 hrs by LC/MS/MS analysis; type: ADME, organism-based; settings: in vivo, other
[20] = Drug uptake in Sprague-Dawley rat lung homogenate at 0.03 mg/kg, IT measured after 7 hrs by LC/MS/MS analysis; type: ADME, organism-based; settings: in vivo, other

T1 sequence (Q16539 whole entry): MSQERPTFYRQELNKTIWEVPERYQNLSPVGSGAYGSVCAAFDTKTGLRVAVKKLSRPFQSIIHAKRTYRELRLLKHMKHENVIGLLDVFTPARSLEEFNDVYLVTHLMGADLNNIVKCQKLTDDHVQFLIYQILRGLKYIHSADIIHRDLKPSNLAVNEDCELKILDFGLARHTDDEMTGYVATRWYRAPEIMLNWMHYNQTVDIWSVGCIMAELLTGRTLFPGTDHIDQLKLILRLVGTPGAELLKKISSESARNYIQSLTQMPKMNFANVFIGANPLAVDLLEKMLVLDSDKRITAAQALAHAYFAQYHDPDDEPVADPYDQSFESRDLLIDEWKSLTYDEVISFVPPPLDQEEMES
Sequence of Mitogen-activated protein kinase 11 (Q15759 whole entry): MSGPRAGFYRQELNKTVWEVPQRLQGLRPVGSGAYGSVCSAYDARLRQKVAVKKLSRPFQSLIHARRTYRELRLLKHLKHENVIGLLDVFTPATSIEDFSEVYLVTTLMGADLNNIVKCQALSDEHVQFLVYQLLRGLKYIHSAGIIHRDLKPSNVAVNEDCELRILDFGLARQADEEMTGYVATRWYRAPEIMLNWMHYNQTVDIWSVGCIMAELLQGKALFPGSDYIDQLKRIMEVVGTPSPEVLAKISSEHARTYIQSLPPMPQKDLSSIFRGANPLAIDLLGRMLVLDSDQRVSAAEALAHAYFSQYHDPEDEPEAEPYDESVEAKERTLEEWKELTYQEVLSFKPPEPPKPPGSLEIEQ

IC50 [3] [nM] | efflux ratio at 1 h, 10 µM [4] | solubility at 0.5 h [5] [µg/mL] | fraction unbound at 4 h, 10 µM [6] | Cmax [7] [nM] | IC50 [8] [nM] | IC50 [9] [nM] | fraction unbound at 4 h, 10 µM [10] | T1/2 [11] [h] | concentration at 24 h [12] [µM] | IC50 [15] [µM] | IC50 [16] [nM] | Cmax [17] [µM] | Papp A→B at 1 h, 10 µM [18] [×10⁻⁶ cm/s] | Drug uptake [19] [%] | Drug uptake [20] [%] | Compound | Activity (Rattus norvegicus [1]) [%] | Activity (Rattus norvegicus [2]) [%] | inhibition in vivo at 0.3 mg/kg (Rattus norvegicus [13]) [%] | Ratio [14]
 |  |  |  |  |  |  |  |  |  |  |  |  |  |  |  | C[C@H]1CCCCN1c1nnc2ccc(O[C@@H]3CC[C@H](NC(=O)Nc4cc(C(C)(C)C)nn4-c4cnn(CCN(C)C)c4)c4ccccc43)cn12.Cl | 55 | 49 |  | 
0.05 | > 2.5 | 620 (≈ 893 µM) | 0.004 | 30 | 805 | 0.5 | 0.002 | > 16 | 4.58 | > 10 | 0.1 | 6.36 | 1.9 | 5.4 | 10 | C[C@@H]1CCC[C@H](C)N1c1nnc2ccc(O[C@@H]3CC[C@H](NC(=O)Nc4cc(C(C)(C)C)nn4-c4cnn(CCN(C)C)c4)c4ccccc43)cn12 |  |  | 43 | 183
